From publication PMC6331991, “Anemarrhena asphodeloides Non-Steroidal Saponin Components Alter the Pharmacokinetic Profile of Its Steroidal Saponins in Rat” (Molecules, 2015)
Where two headings read alike, the source gives them in different places.

What was measured:
[1] = Pharmacokinetic study of four steroidal saponins in rat plasma after oral administration of A. asphodeloides fractions (UPLC-MS/MS); assay type: in vivo, Sprague-Dawley rats; details: for AUC(0-t) / Cmax / half-life / Tmax: male, Sprague-Dawley; for AUC(0-t) / Cmax / half-life / Tmax / T1/2: rat plasma, single oral dose, n = 6, mean ± S.D.; for AUC(0-t): read-out: AUC0–t; for Cmax: read-out: Cmax; for half-life: read-out: T1/2 (converted); for Tmax: read-out: Tmax; for shape of plasma concentration-time curve: after oral administration
Procedure: The dried A. asphodeloides were chopped into slices before using. The A. asphodeloides was immersed in water (1:10, w/v) and extracted twice by refluxing for 2 h. After filtration, the supernatant was condensed to a certain volume under reduced pressure, and 95% ethanol was added to the water extract filtrates until the concentration of ethanol was 80%. The precipitate was filtered as the macromolecular fraction (MF), the ethanol supernatant was concentrated under reduced pressure to a certain volume under vacuum and then purified by gradient elution with water, 40% ethanol and 70% ethanol from an AB-8 MARO porous resin column and then the water-eluted fraction was combined with the 40% ethanol-eluted fraction as the small molecule fraction (SF) and the 70% ethanol eluted fraction was the A. asphodeloides saponins extract (ASE). All of the residues were lyophilized and the resulting dry powder was stored at 4 °C before usage. The contents of four steroidal saponins in ASE dry powder were measured quantitatively by the external standard method using the same chromatography conditions as described above. The contents of timosaponin BII, anemarsaponin BIII, timosaponin AIII and timosaponin E1 in ASE were 429.12, 89.81, 59.13 and 41.25 mg/g, respectively.
Frozen plasma samples were unfrozen at room temperature and treated as follows: to each 200 µL plasma sample, 20 µL of IS (920 ng/mL ginsenoside Re) working solution and 600 µL of acetonitrile were added. After vortexing for 2 min and centrifugation at 13,000 rpm at 4 °C for 10 min the supernatant was transferred into a new tube and evaporated to dryness in a rotary evaporator at 39 °C and the residue was reconstituted in 100 µL of 0.1% formic acid–acetonitrile (50:50, v/v), vortexed for 2 min and centrifuged at 13,000 rpm at 4 °C for 10 min. The supernatant was transferred to an autosampler vial and an aliquot of 2 μL was injected onto the UPLC-MS/MS system for analysis.
Male Sprague-Dawley rats (250–280 g) were obtained from the Shanghai Slac Laboratory Animal Co., Ltd. (Shanghai, China). All animals were kept in an environmentally controlled breeding room (temperature: 20–25 °C, humidity: 55%–65%) for 1 week before the experiments started. Animal welfare and experimental procedures were strictly in accordance with the ethical norms of the Nanjing University of Chinese Medicine. All rats were fasted for 12 h with free access to water prior to the experiments, twenty-four rats were divided into four groups and then were given a single dose of ASE, ASE-SF, AS-MF, AS-M-SF. A 40 mg/mL ASE (the amount of MF, SF added to group AS-MF, ASE-SF, AS-M-SF were based on the proportion extracted from A. asphodeloides) aqueous solution in each group was administered orally at a dose of 400 mg/kg, which contained 171.61, 35.92, 23.62, 16.53 mg/kg of timosaponin BII, anemarsaponin BIII, timosaponin AIII, timosaponin E1, respectively.
About 400 μL blood samples were collected from venipuncture before intragastric gavage and at 0.083, 0.25, 0.5, 1, 1.5, 2, 4, 6, 8, 10, 12, 24 h after a single oral administration. The blood samples were immediately transferred to heparinized tubes and centrifuged at 3000 rpm for 10 min, and the supernatant was transferred into 2.0 mL Eppendorf tubes and stored at −80 °C prior to analysis. Blank plasma was obtained from the rat without oral administration and was used to investigate the assay development and validation.
To calculate the pharmacokinetic parameters of analytes in different group, concentrations–time dada were analyzed by DAS 3.2 software (Mathematical Pharmacology Professional Committee of China, Shanghai, China, 2011). Data were measured as the mean ± standard deviation (S.D.) with triplicate measurements. The identification of significances between different groups was executed with Student’s t-test. A p value < 0.05 was considered statistically significant.

[2] = Stability of analytes in rat plasma QC samples (auto-sampler, long-term, freeze-thaw); assay type: in vitro ADME; details: n = 6; for Stability, Auto-Sampler for 24 h, Mean: 4 °C; for Stability, Freeze–Thaw Cycles, Mean: three cycles −80 °C to room temperature
Procedure: Stock solutions were separately prepared by dissolving the four accurately weighed standard reference compounds in a mixture of 50% acetonitrile. Then, the four stock solutions were mixed and diluted with 50% acetonitrile to prepare a final mixed standard solution containing 650.00 ng/mL of timosaponin BII, 620.00 ng/mL of anemarsaponin BIII, 485.00 ng/mL of timosaponin AIII, 530.00 ng/mL of timosaponin E1. A series of working solutions were freshly prepared by diluting mixed standard solution with 50% acetonitrile to the appropriate concentration. The internal standard solution of ginsenoside Re was prepared to the concentration of 920 ng/mL in 50% acetonitrile. For the validation of the method, three concentrations of standard solution containing timosaponin BII (5.20, 52.00 and 520 ng/mL), anemarsaponin BIII (4.96, 49.60 and 496.00 ng/mL), timosaponin AIII (3.88, 38.8 and 388 ng/mL), timosaponin E1 (4.24, 42.40 and 424.00 ng/mL) were used for preparing the QC plasma samples. The stability experiments were measured by analyzing replicates (n = 6) of three QC samples during the sample storing and processing procedures. For all stability experiments, freshly prepared stability testing QC samples were evaluated by using freshly prepared standard curve for the measurement. The post-preparation stability was tested by determined of the extracted QC samples stored in the auto-sampler (4 °C) for 24 h. The freeze and thaw stability were determined after three freeze-thaw cycles (−80 °C to room temperature). Long-term stability in rat plasma stored at −80 °C was studied for a period of one month.

[3] = rat, plasma, po, 400 mg/kg, Group ASE (ASE 400 mg/kg)
[4] = rat, plasma, po, 400 mg/kg, Group ASE-MF (ASE 400 mg/kg plus macromolecular fraction)
[5] = rat, plasma, po, 400 mg/kg, Group ASE-MF
[6] = rat, plasma, po, 400 mg/kg, Group ASE-SF (ASE 400 mg/kg plus small molecule fraction)
[7] = rat, plasma, po, 400 mg/kg, Group ASE-SF
[8] = rat, plasma, po, 400 mg/kg, Group ASE-SF-MF
[9] = high concentration (388.00–520.00 ng/mL)
[10] = low concentration (3.88–5.20 ng/mL)
[11] = middle concentration (38.80–52.00 ng/mL)

| SMILES | AUC(0-t) [1, 3] [ng·h/mL] | Cmax [1, 3] [ng/mL] | half-life [1, 3] [min] | Tmax [1, 3] [h] | Cmax [1, 4] [ng/mL] | AUC(0-t) [1, 5] [ng·h/mL] | half-life [1, 5] [min] | Tmax [1, 5] [h] | Cmax [1, 6] [ng/mL] | half-life [1, 7] [min] | Tmax [1, 7] [h] | T1/2 ([1]; Group ASE-SF) | shape of plasma concentration-time curve ([1]; rat) | Stability, Auto-Sampler for 24 h, Mean [2, 9] [%] | Stability, at −80 °C for 1 Month, Mean [2, 9] [%] | Stability, Freeze–Thaw Cycles, Mean [2, 9] [%] | Stability, Auto-Sampler for 24 h, Mean [2, 10] [%] | Stability, at −80 °C for 1 Month, Mean [2, 10] [%] | Stability, Freeze–Thaw Cycles, Mean [2, 10] [%] | Stability, Auto-Sampler for 24 h, Mean [2, 11] [%] | further results |
| --- | --- | --- | --- | --- | --- | --- | --- | --- | --- | --- | --- | --- | --- | --- | --- | --- | --- | --- | --- | --- | --- |
| C[C@H]1CC[C@@]2(OC1)O[C@H]1C[C@H]3[C@@H]4CC[C@@H]5C[C@@H](O[C@@H]6O[C@H](CO)[C@H](O)[C@H](O)[C@H]6O[C@@H]6O[C@H](CO)[C@@H](O)[C@H](O)[C@H]6O)CC[C@]5(C)[C@H]4CC[C@]3(C)[C@H]1[C@@H]2C [Timosaponin AIII, timosaponin AIII] | 644 ± 59 | 65.2 ± 4.16 | 319 ± 182 | 5.66 ± 0.81 | 63.6 ± 3.16 | 688 ± 46.3 | 417 ± 374 | 4.33 ± 0.81 | 69.8 ± 2.86 | 492 ± 164 | 5.33 ± 1.03 | significantly increased | single peak | 96.4 | 99.0 | 102.8 | 100.9 | 100.4 | 102.2 | 97.0 | Cmax ([1]; rat, plasma, po, 400 mg/kg, Group ASE-SF-MF (ASE 400 mg/kg plus small molecule and macromolecular fraction)): 74 ± 6.18 ng/mL; AUC(0-t) [1, 8]: 890 ± 57.2 ng·h/mL; half-life [1, 8]: 536 ± 74.4 min; Tmax [1, 8]: 5.66 ± 0.81 h; Stability, at −80 °C for 1 Month, Mean [2, 11]: 101.7%; Stability, Freeze–Thaw Cycles, Mean [2, 11]: 96.2% |
| C[C@@H](CC[C@@]1(O)O[C@H]2C[C@H]3[C@@H]4CC[C@@H]5C[C@@H](O[C@@H]6O[C@H](CO)[C@H](O)[C@H](O)[C@H]6O[C@@H]6O[C@H](CO)[C@@H](O)[C@H](O)[C@H]6O)CC[C@]5(C)[C@H]4CC[C@]3(C)[C@H]2[C@@H]1C)CO[C@@H]1O[C@H](CO)[C@@H](O)[C@H](O)[C@H]1O [Timosaponin BII, timosaponin BII] | 2040 ± 146 | 271 ± 22.5 | 193 ± 70.2 | 3.75 ± 1.78 | 287 ± 11.9 | 1980 ± 104 | 200 ± 71.4 | 3.41 ± 1.43 | 415 ± 41.8 | 218 ± 76.8 | 5 ± 1.67 | no obvious difference | double peak | 88.3 | 95.4 | 91.4 | 95.3 | 94.7 | 98.0 | 98.1 | AUC(0-t) ([1]; 400 mg/kg, Group ASE-SF-MF): 3310 ± 575 ng·h/mL; half-life ([1]; 400 mg/kg, Group ASE-SF-MF): 311 ± 113 min; Tmax ([1]; 400 mg/kg, Group ASE-SF-MF): 3.17 ± 2.21 h; AUC(0-t) [1, 7]: 3090 ± 628 ng·h/mL; Cmax ([1]; Group ASE-SF-MF (ASE 400 mg/kg plus small molecule and macromolecular fraction)): 400 ± 39.6 ng/mL; Stability, at −80 °C for 1 Month, Mean [2, 11]: 98.2%; Stability, Freeze–Thaw Cycles, Mean [2, 11]: 95.5% |
